Source: US6706750B1, “Indole derivatives process for their preparation, pharmaceutical compositions containing them and their medicinal application” (priority 1999, dated 2004)
Structures can show the parent of a compound that is named as a salt. Where two headings read alike, the source gives them in different places.

What was measured:
human 5-HT2B receptors = biological target: T1, human 5-HT2B receptors (Homo sapiens, UniProt P41595); test: Radioligand binding to the 5-HT2B receptor ([3H]-5-HT, CHO cell line)
T1 construct: expressed in transfected cells; host or cells: CHO cell line
Description: (§1) 1. Binding to Serotonin Receptors
(§2) The binding of compounds of formula (I) to serotonin receptors was determined in vitro by standard methods. The preparations were investigated in accordance with the assays given hereinafter.
Method (b): For the binding to the 5-HT2B receptor the 5-HT2B receptors were radiolabelled with [^3H]-5-HT. The affinity of the compounds for human 5-HT2B receptors in a CHO cell line was determined according to the procedure of K. Schmuck, C. Ullmer, P. Engels and H. Lubbert, FEBS Lett., 1994, 342, 85-90.

5-HT2A receptor = biological target: T2, 5-HT2A receptor (Homo sapiens, UniProt P28223); test: Radioligand binding to the 5-HT2A receptor ([125I]-DOI, CHO cell line)
T2 construct: expressed in transfected cells; host or cells: CHO cell line
Description: as §1, §2
Method (c): For the binding to the 5-HT2A receptor the 5-HT2A receptors were radiolabelled with [^125I]-DOI. The affinity of the compounds for 5-HT2A receptors in a CHO cell line was determined according to the procedure of D. J. McKenna and S. J. Peroutka, J. Neurosci., 1989, 9/10, 3482-90.

5-HT2C receptor = biological target: T3, 5-HT2C receptor (Homo sapiens, UniProt P28335); test: Radioligand binding to the 5-HT2C receptor ([3H]-5-HT, CHO cell line)
T3 construct: expressed in transfected cells; host or cells: CHO cell line
T3 sequence (P28335 33-458): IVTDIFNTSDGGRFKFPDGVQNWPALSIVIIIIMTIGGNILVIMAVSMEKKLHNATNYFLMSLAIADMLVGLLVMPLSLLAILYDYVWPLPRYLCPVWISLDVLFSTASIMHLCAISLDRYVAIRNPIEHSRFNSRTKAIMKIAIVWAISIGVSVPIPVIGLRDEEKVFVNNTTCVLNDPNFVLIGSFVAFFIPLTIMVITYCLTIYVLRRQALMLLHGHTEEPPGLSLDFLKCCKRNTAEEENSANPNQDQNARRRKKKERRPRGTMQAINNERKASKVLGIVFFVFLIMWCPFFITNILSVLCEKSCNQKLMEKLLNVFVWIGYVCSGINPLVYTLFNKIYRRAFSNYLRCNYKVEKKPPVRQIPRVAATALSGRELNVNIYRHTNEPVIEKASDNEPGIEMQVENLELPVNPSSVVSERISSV
Description: as §1, §2
Method (a): For the binding to the 5-HT2C receptor the 5-HT2C receptors were radiolabelled with [^3H]-5-HT. The affinity of the compounds for 5-HT2C receptors in a CHO cell line was determined according to the procedure of D. Hoyer, G. Engel and H.O. Kalkman, European J. Pharmacol., 1985, 118, 13-23.

h5-HT2C = biological target: T4, h5-HT2C (Homo sapiens, UniProt P28335); test: Functional activity, FLIPR calcium assay in CHO cells expressing h5-HT2C; format: cell-based; conditions: for Emax: CHO, read-out: h5-HT2C Relative Efficacy; for EC50: FLIPR, CHO cells
T4 construct: expressed in transfected cells; host or cells: CHO cells
T4 sequence (P28335 33-458): T3 sequence (P28335 33-458)
Description: (§3) The functional activity of compounds of formula (I) was assayed using a Fluorimetric Imaging Plate reader (FLIPR) in the following manner.
(§4) CHO cells expressing either the h5-HT2C or h5-HT2A receptors were counted and plated into standard 96 well microtitre plates before the day of testing to give a confluent monolayer. The following day the cells were dye loaded with the calcium sensitive dye Fluo 3-AM by incubation with serum free culture maintenance media containing pluronic acid and Fluo 3-AM dissolved in DMSO at 37° C. in a CO2 incubator at 95% humidity for approximately 90 minutes. Unincorporated dye was removed by washing with Hanks balanced salt solution containing 20 mM HEPES and 2.5 mM probenecid (the assay buffer) using an automated cell washer to leave a total volume of 100 μL/well.
(§5) The drug (dissolved in 50 μL of assay buffer) was added at a rate of 70 μL/sec to each well of the FLIPR 96 well plate during fluorescence measurements. The measurements are taken at 1 sec intervals and the maximum fluorescent signal was measured (approx 10-15 secs after drug addition) and compared with the response produced by 10 μM 5-HT (defined as 100%) to which it is expressed as a percentage response (relative efficacy). Dose response curves were constructed using Graphpad Prism (Graph Software Inc.).

h5-HT2A receptors = biological target: T5, h5-HT2A receptors (Homo sapiens, UniProt P28223); test: Functional activity, FLIPR calcium assay in CHO cells expressing h5-HT2A; format: cell-based; conditions: for Emax: CHO, read-out: h5-HT2A Relative Efficacy; for EC50: FLIPR, CHO cells
T5 construct: expressed in transfected cells; host or cells: CHO cells
Description: as §3, §4, §5

[1] = cited from earlier work
[2] = cited from earlier work; remark: listed apart in the source
[3] = maximum fluorescent signal compared with 10 μM 5-HT (defined as 100%)
[4] = [3H]-5-HT, human receptor, CHO cell line, read-out: Ki(2B)
[5] = [125I]-DOI, CHO cell line, read-out: Ki(2A)
[6] = [3H]-5-HT, CHO cell line, read-out: Ki(2C)

T5 sequence (P28223 whole entry): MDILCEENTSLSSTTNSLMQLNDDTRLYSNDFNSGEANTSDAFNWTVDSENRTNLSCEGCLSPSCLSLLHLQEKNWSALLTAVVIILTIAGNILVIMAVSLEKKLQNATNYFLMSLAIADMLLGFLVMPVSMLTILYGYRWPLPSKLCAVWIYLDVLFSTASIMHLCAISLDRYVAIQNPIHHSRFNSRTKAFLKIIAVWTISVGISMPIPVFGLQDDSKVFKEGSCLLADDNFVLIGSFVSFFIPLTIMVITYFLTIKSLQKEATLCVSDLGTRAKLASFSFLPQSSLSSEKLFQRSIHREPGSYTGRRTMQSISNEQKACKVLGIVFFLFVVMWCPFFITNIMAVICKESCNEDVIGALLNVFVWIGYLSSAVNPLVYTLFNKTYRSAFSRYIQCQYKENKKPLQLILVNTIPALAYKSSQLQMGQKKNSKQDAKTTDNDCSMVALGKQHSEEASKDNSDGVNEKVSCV
T2 sequence (P28223 whole entry): as above
T1 sequence (P41595 whole entry): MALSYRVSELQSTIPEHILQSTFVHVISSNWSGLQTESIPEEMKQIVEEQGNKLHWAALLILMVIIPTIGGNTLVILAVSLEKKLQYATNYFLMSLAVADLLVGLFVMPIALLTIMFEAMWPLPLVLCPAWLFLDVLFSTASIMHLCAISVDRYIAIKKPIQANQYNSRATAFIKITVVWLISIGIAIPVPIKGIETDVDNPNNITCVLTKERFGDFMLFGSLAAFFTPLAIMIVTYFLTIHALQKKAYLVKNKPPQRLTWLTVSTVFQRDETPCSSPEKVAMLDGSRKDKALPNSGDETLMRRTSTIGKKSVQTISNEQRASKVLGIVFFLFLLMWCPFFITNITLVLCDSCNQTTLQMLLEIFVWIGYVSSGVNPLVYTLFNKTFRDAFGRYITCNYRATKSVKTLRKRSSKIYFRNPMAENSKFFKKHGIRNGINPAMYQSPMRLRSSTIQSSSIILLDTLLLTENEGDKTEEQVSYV

Row | Compound | melting point | Emax (h5-HT2C; [3]) | EC50 (h5-HT2C) | Emax (h5-HT2A receptors; [3]) | other results
1 | C[C@H](N)Cn1c2c(c3cc(F)ccc31)CCC2 (as salt: fumarate) (hydrate or solvate) [Example 2, (S)-1-(7-fluoro-1,2,3,4-tetrahydrocyclopent[b]indol-4-yl)-2-propylamine] | 161 to 162 °C | – | – | – | –
2 | C[C@H](N)Cn1c2c(c3c(Cl)cccc31)CCC2 (as salt: fumarate) [Example 4, (S)-1-(8-chloro-1,2,3,4-tetrahydrocyclopent[b]indol-4-yl)-2-propylamine] | 172 to 173 °C (dec.) | – | – | – | –
3 | COc1ccc2c3c(n(C[C@H](C)N)c2c1)CCC3 (as salt: fumarate) [Example 11, (S)-1-(6-methoxy-1,2,3,4-tetrahydrocyclopent[b]indol-4-yl)-2-propylamine] | 182 °C | – | – | – | –
4 | COc1cc2c(cc1F)c1c(n2C[C@H](C)N)CCC1 (as salt: fumarate) [Example 37, (S)-1-(7-fluoro-6-methoxy-1,2,3,4-tetrahydrocyclopent[b]indol-4-yl)-2-propylamine] | 213 °C (dec.) | – | – | – | –
5 | C[C@H](N)Cn1c2c(c3ccccc31)CCC2 (as salt: hydrochloride) (hydrate or solvate) [Example 14, (S)-1-(1,2,3,4-tetrahydrocyclopent[b]indol-4-yl)-2-propylamine] | 233 °C | – | – | – | –
6 | C[C@H](N)Cn1c2c(c3c(Cl)c(F)ccc31)CCC2 (as salt: hydrochloride) (hydrate or solvate) [Example 18, (S)-1-(8-chloro-7-fluoro-1,2,3,4-tetrahydrocyclopent[b]indol-4-yl)-2-propylamine] | 252 to 253 °C | – | – | – | –
7 | C[C@H](N)Cn1c2c(c3c(Cl)cc(Cl)cc31)CCC2 (as salt: hydrochloride) (hydrate or solvate) [Example 26] | 258 °C | – | – | – | –
8 | C[C@@H](N)Cn1c2c(c3ccccc31)CCC2 (as salt: hydrochloride) (hydrate or solvate) [Example 30, (R)-1-(1,2,3,4-tetrahydrocyclopent[b]indol-4-yl)-2-propylamine] | 225 to 231 °C (dec.) | – | – | – | –
9 | C[C@H](N)Cn1c2c(c3ccc(F)cc31)CCC2 (as salt: hydrochloride) (hydrate or solvate) [Example 31] | 215 °C | – | – | – | –
10 | CCSc1ccc2c3c(n(C[C@H](C)N)c2c1)CCC3 (as salt: hydrochloride) [Example 27] | 115 to 119 °C | – | – | – | –
11 | C[C@H](N)Cn1c2c(c3c(F)c(F)ccc31)CCC2 [Example 1, (S)-1-(7,8-Difluoro-1,2,3,4-tetrahydrocyclopent[b]indol-4-yl)-2-propylamine fumarate] | – | 77% | 272 nM | 0% | Ki (human 5-HT2B receptors): 40 nM; Ki (5-HT2A receptor): 122 nM; Ki (5-HT2C receptor): 65 nM
12 | C[C@H](N)Cn1c2c(c3cc(F)ccc31)CCC2 [Example 2, (S)-1-(7-fluoro-1,2,3,4-tetrahydrocyclopent[b]indol-4-yl)-2-propylamine] | – | 85% | 347 nM | 0% | –
13 | C[C@H](N)Cn1c2c(c3c(Cl)cccc31)CCC2 [Example 4, (S)-1-(8-chloro-1,2,3,4-tetrahydrocyclopent[b]indol-4-yl)-2-propylamine] | – | 65% | 179 nM | 60% | –
14 | COc1ccc2c3c(n(C[C@H](C)N)c2c1)CCC3 [Example 11, (S)-1-(6-methoxy-1,2,3,4-tetrahydrocyclopent[b]indol-4-yl)-2-propylamine] | – | 85% | 89 nM | 25% | Ki (human 5-HT2B receptors): 210 nM; Ki (5-HT2A receptor): 314 nM; Ki (5-HT2C receptor): 63 nM; EC50 (h5-HT2A receptors): 1690 nM
15 | C[C@H](N)Cn1c2c(c3ccccc31)CCC2 [Example 14, (S)-1-(1,2,3,4-tetrahydrocyclopent[b]indol-4-yl)-2-propylamine] | – | 80% | 252 nM | 48% | Ki (human 5-HT2B receptors): 180 nM; Ki (5-HT2A receptor): 375 nM; Ki (5-HT2C receptor): 64 nM; EC50 (h5-HT2A receptors): 6250 nM
16 | C[C@H](N)Cn1c2c(c3cc(F)c(Cl)cc31)CCC2 [Example 16] | – | 86% | 307 nM | 0% | –
17 | C[C@H](N)Cn1c2c(c3c(Cl)c(F)ccc31)CCC2 [Example 18, (S)-1-(8-chloro-7-fluoro-1,2,3,4-tetrahydrocyclopent[b]indol-4-yl)-2-propylamine] | – | 75% | 36 nM | 63% | EC50 (h5-HT2A receptors): 2100 nM
18 | C[C@H](N)Cn1c2c(c3c(Cl)cc(Cl)cc31)CCC2 [Example 26] | – | – | – | – | Ki (human 5-HT2B receptors; [4]): 127 nM; Ki (5-HT2A receptor; [5]): 144 nM; Ki (5-HT2C receptor; [6]): 106 nM
19 | CCSc1ccc2c3c(n(C[C@H](C)N)c2c1)CCC3 [Example 27] | – | – | – | – | Ki (human 5-HT2B receptors; [4]): 496 nM; Ki (5-HT2A receptor; [5]): 545 nM; Ki (5-HT2C receptor; [6]): 141 nM
20 | C[C@@H](N)Cn1c2c(c3ccccc31)CCC2 [Example 30, (R)-1-(1,2,3,4-tetrahydrocyclopent[b]indol-4-yl)-2-propylamine] | – | 72% | 90 nM | 43% | Ki (human 5-HT2B receptors): 31 nM; Ki (5-HT2A receptor): 48 nM; Ki (5-HT2C receptor): 19 nM; EC50 (h5-HT2A receptors): 361 nM
21 | C[C@H](N)Cn1c2c(c3ccc(F)cc31)CCC2 [Example 31] | – | – | – | – | Ki (human 5-HT2B receptors; [4]): 161 nM; Ki (5-HT2A receptor; [5]): 550 nM; Ki (5-HT2C receptor): 65 nM
22 | CC(N)Cn1c2c(c3cc(F)c(F)cc31)CCC2 (stereo not shown) [Example 33] | – | 81% | 316 nM | 22% | Ki (human 5-HT2B receptors): 152 nM; Ki (5-HT2A receptor): 233 nM; Ki (5-HT2C receptor): 63 nM
23 | COc1cc2c(cc1F)c1c(n2C[C@H](C)N)CCC1 [Example 37, (S)-1-(7-fluoro-6-methoxy-1,2,3,4-tetrahydrocyclopent[b]indol-4-yl)-2-propylamine] | – | 84% | 127 nM | 28% | Ki (human 5-HT2B receptors): 65 nM; Ki (5-HT2A receptor): 86 nM; Ki (5-HT2C receptor): 41 nM; EC50 (h5-HT2A receptors): 2990 nM
24 | COc1c(F)ccc2c1c1c(n2C[C@H](C)N)CCC1 [Example 42, (S)-1-(7-fluoro-8-methoxy-1,2,3,4-tetrahydrocyclopent[b]indol-4yl)-2-propylamine] | – | 74% | 87 nM | 51% | EC50 (h5-HT2A receptors): 805 nM
25 | C[C@@H](N)Cn1c2c(c3cccc(Cl)c31)CCC2 [Example 43] | 299 to 302 °C | – | – | – | Ki (human 5-HT2B receptors; [4]): 162 nM; Ki (5-HT2A receptor; [5]): 167 nM; Ki (5-HT2C receptor): 62 nM
26 | FC(F)(F)c1cccc(N2CCNCC2)c1 [TFWPP, trifluoromethylphenylpiperazine] | – | – | – | – | food intake in rats [1]: reduce food intake
27 | Clc1cccc(N2CCNCC2)c1 [mCPP, m-chlorophenylpiperazine] | – | – | – | – | appetite and body weight of obese subjects ([2]; obese male and female subjects, subchronic treatment for 14 days): decreased the appetite and body weight; food intake in female volunteers ([2]; single injection, female volunteers): decreased food intake; food intake in rats [1]: reduce food intake
28 | (R)-1-(7-Fluoro-1,2,3,4-tetrahydro-6-methoxy-cyclopent[b]indol-4-yl)-2-propylamine, hemifumarate [Example 36] | – | – | 189 nM | – | h5-HT2C Relative Efficacy (h5-HT2C; [3]): 64%; EC50 (h5-HT2A receptors): 1340 nM; h5-HT2A Relative Efficacy (h5-HT2A receptors; [3]): 25%
